Data on 31 compounds can be found in publication PMC12040169 (PLOS Biology, 2025).

This data set is described as follows: in vitro. The following applies: human, hela cells, % viability.

Turning to `Cc1cc2c(s1)c1cnn(CCN3CCCC3)c(=O)c1n2C` [CBK284180], the viability at 28.5 h, 10 µM turned out to be 90%.

Consider `CCOC(=O)c1c(NC(=O)CN2CC(C)OC(C)C2)sc2c1CCCC2` (stereo not shown) [CBK265216], for which the viability at 28.5 h, 10 µM was 103%.

Turning to `CCN(CC(C)C#N)C(=O)c1ccc2ccccc2n1` (stereo not shown) [CBK304801], the viability at 28.5 h, 10 µM was determined as 96.6%.

As to `Cc1cccc(C(=O)Nc2ccc3oc(-c4cccnc4)nc3c2)c1` [CBK073161], the viability at 28.5 h, 10 µM came to 82.7%.

`COC(=O)c1ccc(-c2ccc(OC)c(OC)c2)nc1` [CBK160175T]: the viability at 28.5 h, 10 µM stood at 98.7%.

On to `Cc1ccc(C(=O)Nc2ccccc2C(=O)N2CCN(Cc3ccccc3)CC2)cc1` [CBK263560], for which the viability at 28.5 h, 10 µM was 94%.

Turning to `NC(=O)c1c(NC(=O)c2ccc(COc3ccc4ccccc4c3)o2)sc2c1CCCC2` [CBK265871], the viability at 28.5 h, 10 µM amounted to 88.5%.

Regarding `CC(=O)N[C@H]1CC[C@]2(C)CCC([C@H](C)C(=O)NC3CC3)[C@H](O)[C@H]2[C@@H]1C` (stereo partly shown) [CBK289437], the viability at 28.5 h, 10 µM came out at 93.9%.

As for `Nc1nc2c(ncn2[C@H]2C[C@@H](O)[C@@H](CO)O2)c(=O)[nH]1` [CBK201294], the viability at 28.5 h, 10 µM is 98.1%.

With `COC(=O)[C@H]1CCc2ccccc2N1C(=O)C1CC1` [CBK285518], the viability at 28.5 h, 10 µM was determined as 78.9%.

On to `COc1ccc(S(=O)(=O)Nc2c(C(=O)O)sc3ncccc23)cc1OC` [CBK049979], for which the viability at 28.5 h, 10 µM worked out at 87.3%.

With `COc1ccc(CCNC(=O)c2cccc(-c3ccc(OC4CCNCC4)cc3)n2)cc1OC` [CBK126548T], the viability at 28.5 h, 10 µM was 91.7%.

Consider `Cc1cc(C)n(-c2nc3c(c(=O)[nH]c(=O)n3C)n2CCc2ccccc2)n1` [CBK087129], for which the viability at 28.5 h, 10 µM stood at 90.2%.

As for `CCOC(=O)c1ccc(NC(=O)c2ccccc2-c2nc(-c3ccccc3Cl)no2)cc1` [CBK268919], the viability at 28.5 h, 10 µM stood at 111%.

In the case of `NS(=O)(=O)c1ccc(NC(=O)CN2CCN(c3ccc([N+](=O)[O-])cc3)CC2)cc1` [CBK266232], the viability at 28.5 h, 10 µM amounted to 96.8%.

In the case of `O=C(c1cccnc1)C1CCN(C(=O)c2cccs2)CC1` [CBK283528], the viability at 28.5 h, 10 µM was 102%.

Take `Cc1noc(C)c1NC(=O)N1CCC2(CC1)OCc1cc(F)ccc1O2` [CBK060721]: the viability at 28.5 h, 10 µM (bulk resorufin, single well) stood at 97.8%.

`Cc1c(C)n(Cc2cccnc2)c2ncn(C3CCCCCC3)c(=N)c12` [CBK287932]: the viability at 28.5 h, 10 µM stood at 85.9%.

In the case of `CC1(C)CN(c2ccc(Cl)cn2)C1=O` [CBK018550], the viability at 28.5 h, 10 µM was 93.6%.

With `COc1cccc(-c2nn(CCC#N)cc2C(N)=O)c1` [CBK305835], the viability at 28.5 h, 10 µM came to 95%.

With `CCCN(CCc1cccnc1)C1Cc2cc(OC)c(OC)cc2C1` [CBK023935C], the viability at 28.5 h, 10 µM (bulk resorufin, single well) turned out to be 88.1%.

For `COC(=O)[C@H]1CN(C(=O)c2scnc2C)C[C@@H]1c1ccc(F)cc1` [CBK283520], the viability at 28.5 h, 10 µM was 104%.

Turning to `O=C(/C=C/c1ccccc1)ONC(=O)c1ccc(Cl)cc1` [CBK263702], the viability at 28.5 h, 10 µM worked out at 111%.

On to `CCCCNc1cc(C)nc2c(-c3ccccc3)cnn12` [CBK287792], for which the viability at 28.5 h, 10 µM worked out at 92.1%.

`CC(C)(CN)CN(Cc1ccccc1C(F)(F)F)C(=O)Nc1ccc(C(C)(C)C)cc1` [CBK026828C]: the viability at 28.5 h, 10 µM came out at 92.4%.

For `O=c1[nH]c2ccccc2n1CCOc1ccccc1` [CBK288008], the viability at 28.5 h, 10 µM is 98.5%.

Take `O=C(O)c1cccc(-c2cncc(NCCCN3CCOCC3)n2)c1` [CBK037850]: the viability at 28.5 h, 10 µM is 104%.

For `CNC(=O)c1ccc(-c2ccc(CNC(=O)CCc3cccc(Cl)c3)cc2)nc1C` [CBK286015], the viability at 28.5 h, 10 µM came to 86.9%.

For the compound `Cc1nn(C)c(C)c1-c1ccnc(NCCC2(O)CCN(C)CC2)n1` [CBK307659], the viability at 28.5 h, 10 µM is 86.1%.

Regarding `CN(C)S(=O)(=O)c1cc(C(=O)Nc2ccc(O)cc2)c(Cl)cc1Cl` [CBK266767], the viability at 28.5 h, 10 µM amounted to 95.4%.

On to `Cc1nc(S(=O)(=O)Cc2c(F)cccc2Cl)n(CC2CCCO2)c1C` (stereo not shown) [CBK304706], for which the viability at 28.5 h, 10 µM stood at 87.9%.
